Measurements published in BindingDB's records for doi:10.1021/acs.biochem.7b00041 (North Carolina State University, 2017).

Biological target: T1, Dehaloperoxidase B (Amphitrite ornata, UniProt Q9NAV7)
T1 sequence (Q9NAV7 whole entry): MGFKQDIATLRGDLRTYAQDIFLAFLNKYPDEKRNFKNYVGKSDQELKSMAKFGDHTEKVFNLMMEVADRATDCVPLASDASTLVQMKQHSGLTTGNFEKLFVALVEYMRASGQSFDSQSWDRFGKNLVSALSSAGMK
Assay: Resonance Raman Assay
Details: pH 7
Method: Samples for solution resonance Raman spectroscopic studies were prepared withfinal concentrations of 75 μM WT DHP B and 3.75 mM azole in 100 mM KPi (pH 7 or 9) containing 10% MeOH (v/v) and then transferred to a 5 mm outside diameter glass NMR tube. Anaerobic samples were prepared inside a glovebox in the same fashion using septum-capped NMR tubes. Spectra were recorded by Soret band excitation (400−430 nm, 60 mW power) as previously described. [Barrios et al., J. Am. Chem. Soc., 136:7914-7925]

Molecule	Kd
c1c[nH]cn1	52 µM
1,2,3-benzotriazole::Benzotriazole (Bta)	82 µM
c1ccc2[nH]cnc2c1 [1H-1,3-benzodiazole]	110 µM
